This is an account of results in US12568969B2, “Pyridine compounds for controlling invertebrate pests” (FMC Corporation, priority 2020, dated 2026).

Assay type in all cases: in vivo
Test [1] concerns diamondback moth (Plutella xylostella (L.)). Kind of test: Test A: control of diamondback moth on mustard plant, spray. The settings on record: sprayed at 250 ppm; assessed after 6 days. Here is the method:
(§1) Test compounds were formulated using a solution containing 10% acetone, […] and 300 ppm Activator 909 non-ionic surfactant (Loveland Products, Loveland, Colorado, USA). The formulated compounds were applied in 1 mL of liquid through an atomizer nozzle positioned 1.27 cm (0.5 inches) above the top of each test unit. Test compounds were sprayed at the rates indicated, and each test was replicated three times.
For evaluating control of diamondback moth (Plutella xylostella (L.)) the test unit consisted of a small open container with a 12-14-day-old mustard plant inside. This was pre-infested with ˜50 neonate larvae that were dispensed into the test unit via corn cob grits using an inoculator. The larvae moved onto the test plant after being dispensed into the test unit.
Test compounds were formulated and sprayed at 250 ppm. After spraying of the formulated test compound, each test unit was allowed to dry for 1 hour and then a black, screened cap was placed on top. The test units were held for 6 days in a growth chamber at 25° C. and 70% relative humidity. Plant feeding damage was then visually assessed based on foliage consumed, and larvae were assessed for mortality.

Test [2] concerns corn planthopper (Peregrinus maidis (Ashmead)). Kind of test: whole plant or invertebrate. The settings on record: Peregrinus maidis, 144 h, 6 days; for mortality at 50 ppm: sprayed at 50 ppm; for mortality at 250 ppm: sprayed at 250 ppm; for mortality at 10 ppm: sprayed at 10 ppm. Here is the method: as §1
For evaluating control of corn planthopper (Peregrinus maidis (Ashmead)) through contact and/or systemic means, the test unit consisted of a small open container with a 3-4-day-old corn (maize) plant inside. White sand was added to the top of the soil prior to application of the test compound.
Test compounds were formulated and sprayed at 250 and/or 50 ppm and/or 10 ppm. After spraying of the formulated test compound, the test units were allowed to dry for 1 h before they were post-infested with ˜15-20 nymphs (18-to-21-day-old). A black, screened cap was placed on the top of each test unit, and the test units were held for 6 days in a growth chamber at 22-24° C. and 50-70% relative humidity. Each test unit was then visually assessed for insect mortality.

Test [3] deals with green peach aphid (Myzus persicae (Sulzer)). In words: Test D: control of green peach aphid on radish plant, spray. The settings on record: Myzus persicae, 144 h, 6 days; for mortality at 250 ppm: sprayed at 250 ppm; for mortality at 50 ppm: sprayed at 50 ppm. Here is the method: as §1
For evaluating control of green peach aphid (Myzus persicae (Sulzer)) through contact and/or systemic means, the test unit consisted of a small open container with a 12-15-day-old radish plant inside. This was pre-infested by placing on a leaf of the test plant 30-40 aphids on a piece of leaf excised from a culture plant (cut-leaf method). The aphids moved onto the test plant as the leaf piece desiccated. After pre-infestation, the soil of the test unit was covered with a layer of sand.
[…] After spraying of the formulated test compound, each test unit was allowed to dry for 1 hour and then a black, screened cap was placed on top. The test units were held for 6 days in a growth chamber at 19-21° C. and 50-70% relative humidity. Each test unit was then visually assessed for insect mortality.

The subject of test [4] is cotton melon aphid (Aphis gossypii (Glover)). In words: whole plant or invertebrate. Conditions: Aphis gossypii, 144 h, 6 days; for mortality at 50 ppm: sprayed at 50 ppm; for mortality at 250 ppm: sprayed at 250 ppm. As to the method:
as §1
[…] This was pre-infested with 30-40 insects on a piece of leaf according to the cut-leaf method, and the soil of the test unit was covered with a layer of sand.
Test compounds were formulated and sprayed at 250 and/or 50 ppm. After spraying, the test units were maintained in a growth chamber for 6 days at 19° C. and 70% relative humidity. Each test unit was then visually assessed for insect mortality.

Test [5] deals with sweetpotato whitefly (Bemisia tabaci (Gennadius)). In words: Test F: control of sweetpotato whitefly on cotton plant, spray. Conditions: 312 h, 13 days; for mortality at 250 ppm: sprayed at 250 ppm; for mortality at 50 ppm: sprayed at 50 ppm. As to the method:
as §1
For evaluating control of the sweetpotato whitefly (Bemisia tabaci (Gennadius)) through contact and/or systemic means, the test unit consisted of a small open container with a 12-14-day-old cotton plant inside. Prior to the spray application, both cotyledons were removed from the plant, leaving one true leaf for the assay. Adult whiteflies were allowed to lay eggs on the plant and then were removed from the test unit. Cotton plants infested with at least 15 eggs were submitted to the test for spraying.
Test compounds were formulated and sprayed at 250 and/or 50 ppm. After spraying, the test units were allowed to dry for 1 hour. The cylinders were then removed, and the units were taken to a growth chamber and held for 13 days at 28° C. and 50-70% relative humidity. Each test unit was then visually assessed for insect mortality.

`Cc1noc(-c2cncc(Cl)c2C(F)c2ccc([S+]([O-])C(F)(F)F)cc2)n1` (mixture of isomers) [Compound 104]: the “control efficacy (40% or less feeding damage and/or 100% mortality)” value in test [1] is “very good to excellent levels of control efficacy”.
As to `Cc1noc(-c2cncc(F)c2C(F)c2ccc(OC(F)(F)F)cc2)n1` (racemic) [Compound 39], in test [1], the “control efficacy (40% or less feeding damage and/or 100% mortality)” value is reported as “very good to excellent levels of control efficacy”.
As for `FC(c1ccc(OC(F)(F)F)cc1)c1ccncc1-n1cncn1` (stereo not drawn) [Compound 12], the mortality at 50 ppm in test [2] and in test [4] was at least 80% throughout. The mortality at 250 ppm in test [2] was at least 80%; in test [3], at least 80%; in test [4], at least 80%; in test [5], at least 70%.
In the case of `FC(c1ccc(OC(F)(F)F)cc1)c1c(Cl)cncc1-n1cncn1` (stereo not drawn) [Compound 15], the mortality at 50 ppm in test [2] and in test [3] was at least 80% throughout. The mortality at 250 ppm in test [2] was at least 80%; in test [3], at least 80%; in test [5] it was at least 70%.
For the compound `FC(c1ccc(OC(F)(F)F)cc1)c1c(Br)cncc1-n1nccn1` (stereo not drawn) [Compound 17], the mortality at 50 ppm in test [2], in test [3] and in test [4] was at least 80% throughout. Also, the mortality at 250 ppm was at least 80% in test [2], at least 80% in test [3], at least 80% in test [4] and at least 70% in test [5].
Turning to `[O-][S+](c1ccc(C(F)c2c(F)cncc2-n2nccn2)cc1)C(F)(F)F` (stereo not drawn) [Compound 67, 3-fluoro-4-[fluoro-[4-(trifluoromethylsulfinyl)phenyl]methyl]-5-(triazol-2-yl)pyridine], the mortality at 50 ppm in test [2], in test [3] and in test [4] was at least 80% each time. Moreover, the mortality at 250 ppm in test [2] is at least 80%; in test [3] it was at least 80%; in test [4] it was at least 80%; in test [5], at least 70%.
In test [2], `COC(c1ccc(SC(F)(F)F)cc1)c1c(F)cncc1-n1cccn1` (stereo not drawn) [Compound 70] registered a mortality at 10 ppm of at least 80%, a mortality at 50 ppm of at least 80% and a mortality at 250 ppm of at least 80%. This compound also displayed a mortality at 250 ppm in test [3] of at least 80%. In test [4], this compound registered a mortality at 50 ppm of at least 80% and a mortality at 250 ppm of at least 80%.
Regarding `COC(c1ccc(SC(F)(F)F)cc1)c1c(F)cncc1-n1cncn1` (stereo not drawn) [Compound 71], the results for the mortality at 50 ppm in test [3], in test [4] and in test [5] were at least 80%, at least 80% and at least 70%, respectively. The mortality at 250 ppm was at least 80% in test [3], at least 80% in test [4] and at least 70% in test [5].
As to `Fc1cncc(-c2nccs2)c1C(F)c1ccc(SC(F)(F)F)cc1` (stereo not drawn) [Compound 77], the mortality at 50 ppm in test [2] was at least 80%. The mortality at 250 ppm in test [2], in test [3] and in test [4] was at least 80% each time.
For the compound `COC(c1ccc(SC(F)(F)F)cc1)c1c(F)cncc1-c1ncon1` (stereo not drawn) [Compound 83, 3-[5-fluoro-4-[methoxy-[4-(trifluoromethylsulfanyl)phenyl]methyl]-3-pyridyl]-1,2,4-oxadiazole], the mortality at 50 ppm in test [2] and in test [4] was at least 80% throughout. In addition, the mortality at 250 ppm in test [2], in test [3] and in test [4] was at least 80% in each case.
As to `FC(c1ccc(SC(F)(F)F)cc1)c1c(Br)cncc1-n1nccn1` (stereo not drawn) [Compound 86], the mortality at 50 ppm in test [2], in test [3] and in test [4] was at least 80% each time. Further, the mortality at 250 ppm in test [2], in test [3] and in test [4] was at least 80% throughout.
With `FC(c1ccc(OC(F)(F)F)cc1)c1c(Cl)cncc1-n1cccn1` (stereo not drawn) [Compound 88], the mortality at 50 ppm in test [2] is at least 80%; in test [4] it was at least 80%; in test [5], at least 70%. For the same compound, the mortality at 250 ppm in test [2] was at least 80%; in test [3] it was at least 80%; in test [4], at least 80%; in test [5], at least 70%.
Consider `[O-][S+](c1ccc(C(F)c2c(Cl)cncc2-n2nccn2)cc1)C(F)(F)F` (stereo not drawn) [Compound 90], for which the mortality at 50 ppm is at least 80% in test [2], at least 80% in test [3], at least 80% in test [4] and at least 70% in test [5]. The mortality at 250 ppm was at least 80% in test [2], at least 80% in test [3], at least 80% in test [4] and at least 70% in test [5].
Take `O=S(=O)(c1ccc(C(F)c2c(Cl)cncc2-n2nccn2)cc1)C(F)(F)F` (stereo not drawn) [Compound 91]: the mortality at 50 ppm in test [3] is at least 80%; in test [4], at least 80%; in test [5] it was at least 70%. The values for the mortality at 250 ppm in test [3], in test [4] and in test [5] were at least 80%, at least 80% and at least 70%, respectively.
With `FC(c1ccc(SC(F)(F)F)cc1)c1c(I)cncc1-n1nccn1` (stereo not drawn) [Compound 95], the mortality at 10 ppm in test [2] was at least 80%. Besides, the mortality at 50 ppm is at least 80% in test [2], at least 80% in test [3], at least 80% in test [4] and at least 70% in test [5]. Further, the mortality at 250 ppm in test [2] is at least 80%; in test [3], at least 80%; in test [4] it was at least 80%; in test [5] it was at least 70%.
In test [2], `Fc1cncc(C2OCCO2)c1C(F)c1ccc(SC(F)(F)F)cc1` (stereo not drawn) [Compound 96] had a mortality at 10 ppm of at least 80%, a mortality at 50 ppm of at least 80% and a mortality at 250 ppm of at least 80%. In test [3], this compound displayed a mortality at 250 ppm of at least 80%. Besides, in test [4], the mortality at 50 ppm was at least 80% and the mortality at 250 ppm is at least 80%.
In test [2], `CC(C)(C)c1ccc(C(F)c2c(Br)cncc2-n2nccn2)cc1` (stereo not drawn) [Compound 108] yielded a mortality at 50 ppm of at least 80% and a mortality at 250 ppm of at least 80%. Further, in test [5], the mortality at 50 ppm was at least 70% and the mortality at 250 ppm is at least 70%.
As for `FC(c1ccc(Br)cc1)c1c(Cl)cncc1-n1nccn1` (stereo not drawn) [Compound 109], the mortality at 10 ppm in test [2] was at least 80%. The results for the mortality at 50 ppm in test [2], in test [4] and in test [5] were at least 80%, at least 80% and at least 70%, respectively. Further, the figures for the mortality at 250 ppm in test [2], in test [4] and in test [5] were at least 80%, at least 80% and at least 70%, respectively.
Take `COC(c1ccc(Br)cc1)c1c(F)cncc1-n1nccn1` (stereo not drawn) [Compound 117]: in test [5], the mortality at 50 ppm is at least 70% and the mortality at 250 ppm is at least 70%.
In test [2], `COC(c1ccc(SC(F)(F)F)cc1)c1c(Cl)cncc1-n1nccn1` (stereo not drawn) [Compound 127] came in with a mortality at 10 ppm of at least 80%. Also, the mortality at 50 ppm in test [2] is at least 80%; in test [3], at least 80%; in test [4] it was at least 80%; in test [5], at least 70%. Besides, the mortality at 250 ppm in test [2] was at least 80%; in test [3], at least 80%; in test [4] it was at least 80%; in test [5], at least 70%.
As to `COC(c1ccc(SC(F)(F)F)cc1)c1c(Br)cncc1-n1ccnn1` (stereo not drawn) [Compound 134], in test [5], the mortality at 50 ppm was at least 70% and the mortality at 250 ppm is at least 70%.

Usually mortality stands for the share of the test organisms that died. Read a high mortality as a strong lethal effect.
